In experiment [1] the test system is C3H/H male mice. Put plainly: acetic acid-writhing method, intravenous, time course in comparison with phenylbutazone. Type of experiment: in vivo, mouse. As to conditions: for Writhing frequency / writhing inhibition: Group B, i.v. 1 mg/mouse. An excerpt:
The analgesic effects of the LPSs of the present invention have been confirmed by an experiment using animals according to the acetic acid-writhing method described on page 415 of "Inflammation and anti-inflammatory therapy" issued in 1982 by Ishiyaku Shuppan Co. in Japan, one of the established methods for the determination of the effects of non-narcotic analgesics. The experiment included comparison with the prior art phenylbutazone which is often used to eliminate inflammatory pain.
2) The following preparations were given to six-membered groups of 8 week old C3H/H male mice (body weight: 20-25 g).
Group A: an intravenous solution prepared by dissolving 1 μg by weight/mouse of LPS (wheat LPS prepared in Reference Example 1) in 0.2 ml of physiological saline.
Group B: an intravenous solution prepared by dissolving 1 mg/mouse of the prior art analgesic phenylbutazone in 0.2 ml of 1% aqueous CMC solution.
Group C: 0.2 ml of physiological saline.
0.5 ml of 1% acetic acid was administered intraperitoneally 0.5, 1.5, 3, 8 or 18 hours after the administration of the preparations, and the writhing frequency of the respective mice was counted. The results are shown in Table 9 as an average of six mice in the respective groups. In the table, the writhing inhibition (%) was calculated as follows: [formula]
In the above equation, the writhing frequency in the group C is that obtained in the case where acetic acid was given 30 minutes after the administration of physiological saline, and the counting was made for 30 minutes. The data of the group A was 39, whereas that of the group B was 35.

In experiment [2] the test system is macrophage peritoneal cells of mice. The experiment in a line: ability of LPS to activate in vitro TNF productivity of macrophage (TNF activity by cytotoxicity to L929 cells). Type of experiment: cell-based, mouse. As for the experimental part: In order to determine the ability of LPS to activate the in vitro TNF productivity of macrophage, a recombinant mouse IFN-γ is added to peritoneal macrophage cells of mouse as the primer followed by addition of the LPS as the trigger thereto, and then the TNF activity is determined.
The TNF activity is determined, as follows, on the basis of the cytotoxicity to L929 cells (Proci. Natl. Acad. Sci. U.S.A., 72, pp. 3666-3670, […]). L-929 cells are cultured in Eagles' Minimum Essential Medium (hereunder referred to only as MEM) with 5% fetal calf serum (hereunder referred to only as FCS) added thereto until 100 μl of the medium contains 8×10^4 cells, and then the cells are grown in a flat-bottomed plate having 96 wells.
The growth conditions are 37° C. in the presence of 5% CO2, and under a humidity of 100% for 2 hours, and the procedures may be the same as for the conventional cell culture. Then actinomycin D is added to the medium to a final concentration of 1 μg/ml, and the volume of the culture solution is adjusted to 150 μl. Immediately thereafter 50 μl of the sample diluted appropriately with MEM medium is added to the culture solution. Here, ED50 may be determined by adjusting the dilution appropriately. The L-929 cells having a final volume of 200 μl are cultured for an additional 18 hours under the same conditions as described above.
In order to determine the cell necrosis activity, first the whole medium is removed followed by addition of a 1% methyl alcoholic solution containing 0.1% crystal violet for fixation staining. Crystal violet stains all the eukaryotic cells, but the dead cells are removed off from the bottom of the flask only by washing after the staining; so the cell necrosis activity may be determined directly. The staining degree is measured on the basis of adsorption at OD590 nm, and is compared with that of a control to determine the cell necrosis activity. This activity is defined as follows.
The dilution of the sample which allows 50% of the L-929 cells to survive (N) is determined. Rabbit TNS is used as the control, and its activity n (units/ml) is determined using 2.4×10^6 units/mg/ml of TNF-α. The dilution which provides ED50 of rabbit TNS is determined.
The activity of the sample (units/ml) is calculated by the equation N/C×n.
Two hundred μl (2×10^5 cells)/well of macrophage peritoneal cells of mice (each group comprised three mice of 9 weeks old and having an average weight of 29 g) were placed in a flat-bottomed plate having 96 wells, and 10 μl of recombinant IFN-γ (100 units/ml) as a primer was placed in the respective wells. Separately, extracts prepared by extraction of various LPS sources with hot water at 65° C. for 5 hrs. were diluted to various degrees, and then were administered as triggers to the cells three hours after the administration of the primer in a proportion of 10 μl/well. After two hour culture, the culture solutions were subjected to centrifugation at 3,000 G for 20 min. A pipette was used to collect 130 μl of the supernatant from the respective wells, and the TNF activity was determined on the basis of the toxicity to L929 cells. The limulus test-positive LPS content was determined using Toxicolor System® commercially available from Sei-Kagaku Kogyo Co. in Japan.
The values were plotted to prepare a graph wherein the quantity of the TNF produced (units/ml of culture solution) was plotted along the axis of ordinate, whereas the corresponding limulus test-positive LPS content (ng/ml of culture solution) was plotted along the axis of abscissa (on a logarithmic scale), and a sigmoid curve was prepared on the basis of the plotted points. The macrophage activation ability was estimated to be 0% in the case where it corresponded to the quantity of TNF produced by macrophage with no trigger added thereto, and 100% was assigned to the macrophage activation ability which provided the maximal constant of TNF. […]

[3] abbreviates: LPS 2 ng/ml of culture solution.
[4] abbreviates: LPS 24 ng/ml of culture solution.
The mark [5] stands for this setting: LPS 240 ng/ml of culture solution.
Setting [6] is: LPS 2400 ng/ml of culture solution.

Turning to `CCCCC1C(=O)N(c2ccccc2)N(c2ccccc2)C1=O` [phenylbutazone], the “significance of analgesic effects (double-sided t test)” value in experiment [1] (3 hours after administration) is recorded as “no significant analgesic effects”. Moreover, the figures for the Writhing frequency in experiment [1] (time lapsed 0.5 h), in experiment [1] (time lapsed 1.5 h) and in experiment [1] (time lapsed 3 h) were 18, 7 and 25, respectively. The writhing inhibition in experiment [1] (time lapsed 0.5 h) is 49%; in experiment [1] (time lapsed 1.5 h) it was 80%; in experiment [1] (time lapsed 3 h), 29%.

Turning to Lipid A, the TNF produced is 4.7 units/ml of culture solution in experiment [2] (setting [3]), 9.4 units/ml of culture solution in experiment [2] (setting [4]), 11.1 units/ml of culture solution in experiment [2] (setting [5]) and 11.5 units/ml of culture solution in experiment [2] (setting [6]). In addition, the macrophage activation ability in experiment [2] (setting [3]) is 37%; in experiment [2] (setting [4]) it was 80%; in experiment [2] (setting [5]), 96%; in experiment [2] (setting [6]) it was 100%.
